This note sets out measurements from patent US6951889B2, “2-amino-2-alkyl-5 heptenoic and heptynoic acid derivatives useful as nitric oxide synthase inhibitors” (Pharmacia Corporation, priority 2000, dated 2005).

For assay [1], the system named is nitrite production in human cartilage explants induced with recombinant human IL-1β. The assay can be described thus: Human cartilage explant assay. Format: cell-based. To be noted: six concentrations of inhibitor, read-out: IC50 inhibition of nitrite production. The method, then:
Bone pieces are rinsed twice with Dulbecco's Phosphate Buffered Saline (GibcoBRL) and once with Dulbecco's Modified Eagles Medium (GibcoBRL) and placed into a petri dish with phenol red free Minimum Essential Medium (MEM) (GibcoBRL). Cartilage was cut into small explants of approximately 15-45 mg in weight and one or two explants per well are placed into either 96 or 48 well culture plates with 200-500 μL of culture media per well. The culture media was either a custom modification of Minimum Essential Medium(Eagle) with Earle's salts (GibcoBRL) prepared without L-Arginine, without L-Glutamine and without phenol red or a custom modification of serumless Neuman and Tytell (GibcoBRL) medium prepared without L-arginine, without insulin, without ascorbic acid, without L-glutamine and without phenol red. […]
The day old supernatant is then discarded and replaced with fresh culture media containing recombinant human IL-1β and compound and incubated for another 20-24 hours. This supernatant is analyzed for nitrite with a fluorometric assay (Misko et al, Anal. Biochem., 214, 11-16, 1993). […] IC50 values (Table III) are determined from plotting the percent inhibition of nitrite production at six different concentrations of inhibitor.

The test system of assay [2] is LPS-induced increase in plasma nitrite/nitrate levels. The assay can be described thus: In vivo assay in endotoxin-treated rats. To be noted: Rattus norvegicus, po, administered orally 0.5-1 hours prior to LPS, plasma nitrite/nitrate 5 hours following LPS, read-out: ED50 for inhibition of the LPS-induced increase in plasma nitrite/nitrate levels. The method, then:
Compounds are administered orally 0.5-1 hours prior to LPS administration and plasma nitrite/nitrate levels are determined 5 hours following LPS administration.

The structures appear in SMILES notation.

The IC50 is the point on the concentration scale where inhibition reaches its midpoint. Consider `CC(=N)NC/C(F)=C\CC[C@](C)(N)C(=O)O.Cl.Cl` [Example 1, (2S,5E)-2-amino-2-methyl-6-fluoro-7-[(1-iminoethyl)amino]-5-heptenoic acid, Dihydrochloride], for which the IC50 in assay [1] is 400 nM. Moreover, the ED50 in assay [2] is 0.4 mg/kg.
As for `CC(=N)NC/C=C\CC[C@](C)(N)C(=O)O.Cl.Cl` [Example 14, (2S,5Z)-2-amino-2-methyl-7-[(1-iminoethyl)amino]-5-heptenoic acid, Dihydrochloride], the IC50 in assay [1] is 800 nM. In assay [2], the ED50 came to 0.3 mg/kg.
